Assay results as given in patent US20050107289A1, “Anti-microbial peptides and compositions” (priority 2001, published 2005).
Where a name gives a salt, the structure may show the parent alone. Read-outs that look alike come from different tables or passages of the source. Non-standard residues stand in square brackets, D forms with d. Residues, ends and D or L forms follow the SMILES beside them.

How the values were obtained:
[1] = test system: vancomycin-resistant Enterococus faecalis (VRE)(ATCC 51575); type: cell-based, Enterococcus faecalis; design: key to VRE (in vitro activity): peptide concentration in μg/ml (broth dilution assay); settings: Table 9
Procedure, shortened: (§1)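 Peptide activity was measured by NCCLS M7-A4 broth dilution, mostly as microdilution with some macrodilution. Serial 2-fold dilutions, approximately 400-2 μg/ml stock range, were made in 5% DMSO/9% aq. sucrose. Overnight cultures were diluted 4000-fold to about 2.5×10^5 cfu/ml inoculum.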

[2] = test system: S. aureus (MRSA) ATCC 33591; type: cell-based, Staphylococcus aureus; settings: Table 9
Procedure, shortened: as §1

murine red blood cells = assay: Red blood cell hemolysis; type: cell-based, mouse
Procedure, shortened: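 Hemolysis read as A560 of supernatant, scaled between saline (0%) and 1% Triton X-100 (100%) controls; peptides were serially diluted onto 5% murine red cells in saline plus 10% FBS and incubated 30 min at 37° C.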

[3] = media c: Brain Heart Infusion (BHI)
[4] = media b: cation adjusted Meuller Hinton broth (MHBII)
[5] = media a: anti-microbial media-3 (AM-3)

| SMILES | VRE (in vitro activity) [1, 3] | MRSA (in vitro activity) [2, 4] | RBC Hemolysis (HD50) (murine red blood cells) | VRE (in vitro activity) ([1]; media a: AM-3) | MRSA (in vitro activity) [2, 5] |
| --- | --- | --- | --- | --- | --- |
| CC[C@H](C)[C@@H]1NC(=O)[C@@H](Cc2c[nH]c3ccccc23)NC(=O)[C@H](CCCCN)NC(=O)[C@@H](CCCNC(=N)N)NC(=O)[C@H](C)NC(=O)[C@@H](CC(C)C)NC1=O [SEQ ID NO:114, [KWILAR]] (cyclo(K[dW]I[dL]A[dR])) | >200 | 50 | >200 |  |  |
| CC(C)C[C@@H]1NC(=O)[C@@H](Cc2c[nH]c3ccccc23)NC(=O)[C@H](CCC(N)=O)NC(=O)[C@@H](Cc2c[nH]c3ccccc23)NC(=O)[C@H](CCCCN)NC(=O)[C@@H](Cc2c[nH]c3ccccc23)NC1=O [SEQ ID NO:116, [KWQWLW]] (cyclo(K[dW]Q[dW]L[dW])) |  |  | >16 | 12 | 12 |
| CC(C)C[C@@H]1NC(=O)[C@@H](Cc2c[nH]c3ccccc23)NC(=O)[C@H](CCCCN)NC(=O)[C@@H](CCC(=O)O)NC(=O)[C@H](CCCCN)NC(=O)[C@@H](Cc2c[nH]c3ccccc23)NC1=O [SEQ ID NO:117, [KEKWLW]] (cyclo(K[dE]K[dW]L[dW])) |  |  | >121 | 91 | 101 |
| CC(C)C[C@@H]1NC(=O)[C@@H](Cc2c[nH]c3ccccc23)NC(=O)[C@H](CCC(N)=O)NC(=O)[C@@H](CCC(=O)O)NC(=O)[C@H](CCCCN)NC(=O)[C@@H](Cc2c[nH]c3ccccc23)NC1=O [SEQ ID NO:118, [KEQWLW]] (cyclo(K[dE]Q[dW]L[dW])) |  |  | >115 | >115 | >115 |
| CC(C)C[C@@H]1NC(=O)[C@@H](Cc2c[nH]c3ccccc23)NC(=O)[C@H](CCCCN)NC(=O)[C@@H](Cc2c[nH]cn2)NC(=O)[C@H](CCCCN)NC(=O)[C@@H](Cc2c[nH]c3ccccc23)NC1=O [SEQ ID NO:119, [KHKWLW]] (cyclo(K[dH]K[dW]L[dW])) |  |  | >115 | 60 | 12 |
| CC(C)C[C@@H]1NC(=O)[C@@H](Cc2c[nH]c3ccccc23)NC(=O)[C@H](CCC(N)=O)NC(=O)[C@@H](Cc2c[nH]cn2)NC(=O)[C@H](CCCCN)NC(=O)[C@@H](Cc2c[nH]c3ccccc23)NC1=O [SEQ ID NO:120, [KHQWLW]] (cyclo(K[dH]Q[dW]L[dW])) |  |  | 115.0 | 57 | 43 |
| CC(C)C[C@@H]1NC(=O)[C@@H](Cc2c[nH]c3ccccc23)NC(=O)[C@H](CCCCN)NC(=O)[C@@H](CCCCN)NC(=O)[C@H](CCCCN)NC(=O)[C@@H](Cc2c[nH]c3ccccc23)NC1=O [SEQ ID NO:121, [KKKWLW]] (cyclo(K[dK]K[dW]L[dW])) |  |  | >111 | 51 | 23 |
| CC(C)C[C@@H]1NC(=O)[C@@H](Cc2c[nH]c3ccccc23)NC(=O)[C@H](CCC(N)=O)NC(=O)[C@@H](CCCCN)NC(=O)[C@H](CCCCN)NC(=O)[C@@H](Cc2c[nH]c3ccccc23)NC1=O [SEQ ID NO:122, [KKQWLW]] (cyclo(K[dK]Q[dW]L[dW])) |  |  | >215 | 81 | 27 |
| CC(C)C[C@@H]1NC(=O)[C@@H](Cc2c[nH]c3ccccc23)NC(=O)[C@H](CCC(N)=O)NC(=O)[C@@H](CC(N)=O)NC(=O)[C@H](CCCCN)NC(=O)[C@@H](Cc2c[nH]c3ccccc23)NC1=O [SEQ ID NO:123, [KNQWLW]] (cyclo(K[dN]Q[dW]L[dW])) |  |  | >74 | >74 | >74 |
| CC(C)C[C@@H]1NC(=O)[C@@H](Cc2c[nH]c3ccccc23)NC(=O)[C@H](CCC(N)=O)NC(=O)[C@@H](CCC(N)=O)NC(=O)[C@H](CCCCN)NC(=O)[C@@H](Cc2c[nH]c3ccccc23)NC1=O [SEQ ID NO:124, [KQQWLW]] (cyclo(K[dQ]Q[dW]L[dW])) |  |  | >35 | >35 | >35 |
| CC(C)C[C@@H]1NC(=O)[C@@H](Cc2c[nH]c3ccccc23)NC(=O)[C@H](CCCCN)NC(=O)[C@@H](CCCNC(=N)N)NC(=O)[C@H](CCCCN)NC(=O)[C@@H](Cc2c[nH]c3ccccc23)NC1=O [SEQ ID NO:125, [KRKWLW]] (cyclo(K[dR]K[dW]L[dW])) |  |  | >174 | 33 | 9 |
| CC(C)C[C@@H]1NC(=O)[C@@H](Cc2c[nH]c3ccccc23)NC(=O)[C@H](CCCCN)NC(=O)[C@@H](CO)NC(=O)[C@H](CCCCN)NC(=O)[C@@H](Cc2c[nH]c3ccccc23)NC1=O [SEQ ID NO:126, [KSKWLW]] (cyclo(K[dS]K[dW]L[dW])) |  |  | >65 | 38 | 19 |
| CC(C)[C@H]1NC(=O)[C@H](Cc2ccc(O)cc2)NC(=O)[C@@H](CO)NC(=O)[C@H](CCCCN)NC(=O)[C@@H](CO)NC(=O)[C@H](Cc2c[nH]c3ccccc23)NC1=O [SEQ ID NO:127, [KSYVWS]] (cyclo(K[dS]Y[dV]W[dS])) | >200 | >200 | >200 |  |  |
| CC(C)C[C@@H]1NC(=O)[C@@H](Cc2c[nH]c3ccccc23)NC(=O)[C@H](CCCCN)NC(=O)[C@@H](Cc2ccccc2)NC(=O)[C@H](CCCCN)NC(=O)[C@@H](Cc2c[nH]c3ccccc23)NC1=O [SEQ ID NO:128, [KFKWLW]] (cyclo(K[dF]K[dW]L[dW])) |  |  | >61 | 43 | 14 |
| CC(C)C[C@@H]1NC(=O)[C@@H](Cc2c[nH]c3ccccc23)NC(=O)[C@H](CCC(N)=O)NC(=O)[C@@H](Cc2ccccc2)NC(=O)[C@H](CCCCN)NC(=O)[C@@H](Cc2c[nH]c3ccccc23)NC1=O [SEQ ID NO:129, [KFQWLW]] (cyclo(K[dF]Q[dW]L[dW])) |  |  | >81 | 10 | 25 |
| C[C@H](O)[C@H]1NC(=O)[C@H](CCCNC(=N)N)NC(=O)[C@@H](CO)NC(=O)[C@H](CCC(N)=O)NC(=O)[C@@H](Cc2c[nH]cn2)NC(=O)[C@H](CCCCN)NC1=O [SEQ ID NO:130, [KHQSRT]] (cyclo(K[dH]Q[dS]R[dT])) | >200 | >200 | >200 |  |  |
| CC[C@H](C)[C@@H]1NC(=O)[C@@H](CO)NC(=O)[C@H](CCCCN)NC(=O)[C@@H]([C@H](C)O)NC(=O)[C@H]([C@@H](C)CC)NC(=O)[C@@H](CCCNC(=N)N)NC1=O [SEQ ID NO:132, [KSIRIT]] (cyclo(K[dS]I[dR]I[dT])) | >200 | >200 | 175 |  |  |
| CC(C)C[C@H]1NC(=O)[C@H](Cc2c[nH]c3ccccc23)NC(=O)[C@@H](CCCCN)NC(=O)[C@H](CCCCN)NC(=O)[C@@H](CCCCN)NC(=O)[C@H](Cc2c[nH]c3ccccc23)NC(=O)[C@@H](CC(C)C)NC(=O)[C@H](Cc2c[nH]c3ccccc23)NC1=O [[KKKWLWLW-HCl] (17), cyclo[-(D-Lys-Lys-D-Lys-(Trp-D-Leu)2-Trp-]] (cyclo([dK]K[dK]W[dL]W[dL]W)) | 6 | 6 | 75 |  |  |
